Here are results for 1 sequence from patent publication US8420100B2, “Tumor suppressor activating polypeptides and uses thereof” (Department of Biotechnology, priority 2006, dated 2013).

In assay [1] the target is T1, p53 (serine-15 phosphorylation) (Homo sapiens, UniProt P04637).
T1 construct: HEK 293 (p53^+/+) cells; endogenous in cells; host or cells: HEK 293
Kind of assay: Western blotting for total p53 and phospho serine-15 p53 in peptide-treated HEK 293 cells. Format: cell-based. To be noted: HEK 293, TAT-PTD alone 50-100 μM. As to the method: P44 peptide controls the activity of cell cycle regulatory proteins: The minimal dose of P44 peptide that was functionally effective in activating p53 was evaluated by incubating HEK 293 cells with varying concentrations of P44 peptide (1-100 μM) (FIG. 3A) and after 12 h of incubation, protein lysates were prepared and processed for immunoblotting with total p53 (DO-1) and p53 ser-15 phospho-specific antibodies. […] However, there was a 4.5-fold increase in the expression of phosphorylated p53 (pSerine-15 p53) in P44 peptide-treated cells (FIG. 3A, lanes 2-6). To exclude the possibility that p53 activation is an effect of the protein transduction domain of HIV-1 TAT protein, similar set of experiment was performed using TAT-PTD peptide alone (consisting of only the 11-mer TAT-sequence). […] This observation reconfirmed that the RS domain (288-350 aa) of SMAR1 could exclusively activate p53 by mediating its phosphorylation specifically at serine-15 residue. Serine-15 phosphorylation of p53 is associated with its increased transcription efficiency, decreased affinity for MDM2, and its increased nuclear retention. One of the target genes activated by p53 is p21, an inhibitor of a subset of the cyclin-dependent kinases including cdc-2 (Sherr, C. J., and Roberts, J. M. (1999) Genes Dev. 13, 1501-1512). To evaluate the significance of peptide-mediated p53 activation, P44 peptide-treated lysates were further checked for tyrosine 15 phosphorylation of cdc2. […] HEK 293 cells were treated with SM peptide and checked for p53 as well as pcdc-2 levels.
Serine 347 residue of SMAR1: critical for mediating the effects of full-length SMAR1: Once it was established that the serine motif (SSSSYS) plays a pivotal role in SMAR1-mediated p53 activation, it got necessary to identify the serine residue within this motif that might be necessary in mediating these effects. To identify the critical serine residue within P44 peptide, various point-mutant peptides were custom synthesized, that varied with respect to the position of serine residue that was mutated (Table 1). To evaluate the functionality of mutant chimeric TAT-SMAR1 peptides [PS347A, PS348A, PS349A, PS350A and RS mutant (SM)] in comparison to the TAT-SMAR1 WT peptide (P44), HEK 293 cells were treated with 10 μM concentration of either of the peptides and protein lysates were prepared after 12 h incubation period. The lysates were then processed for immunoblotting with pSer-15 p53 and pcdc-2 antibodies. […] However, this was not the case with other mutated peptides. When the alanine was replaced back to serine at the 347 residue (FIG. 4A, lanes 3-5), the functionality of the peptide was restored as observed with increase in pcdc-2 levels. […] However, in case of SM (where serine residues from 347-350 were replaced by alanines) treated cells (FIG. 4A, lane 7), there was no difference in the pSer-15 p53 as well as pcdc-2 levels compared to either untreated or PS347A treated cells (FIG. 4A, lanes 1 and 2, respectively).
FIG. 3. P44 peptide activates p53-mediated cell cycle pathway. A, HEK 293 cells were seeded at a density of 5×10^5 and after 24 h, was incubated with increasing concentrations of the TAT-SMAR1 WT (P44) peptide. Protein lysates were prepared and then immunoblotted with antibodies to total p53, phospho serine-15. B, The same set of experiment was repeated with TAT PTD peptide representing the PTD carrier sequence alone and immunoblotted with phospho serine-15, in comparison of P44 treated cells. C, The status of phospho cdc-2 was further analyzed in P44 peptide treated cells. Total […] was used as an internal control. D, The same set of experiments were again repeated using TAT-SMAR1 RS mutant (SM) peptide and whole cell lysates were probed for phospho p53 serine-15 and pcdc-2 antibodies. […] was used as a loading control.
FIG. 4. Serine 347 residue of SMAR1 mediates p53 activation and stabilization. […]
On the technique in general: Immunoblotting shows a protein as a band on a membrane.

For assay [2], the system named is B16F1 mouse melanoma cells. Kind of assay: B16F1 melanoma tumor regression in nude mice. Format: in vivo. To be noted: nude mice, 200 μg/mouse thrice a week, 4 weeks. As to the method:
P44 peptide: A potent tumor regressor: To test whether the differences in SMAR1 derived peptide-induced activation of p53 translated to differences in drug sensitivity in vivo, B16F1 mouse melanoma cells were subcutaneously grafted into athymic nude mice, and tumor growth together with therapeutic sensitivity was monitored. Once the tumor nodule was established into the mouse, P44 peptide was injected in the tumor localized areas at a physiological dose of 200 μg/mouse thrice a week. The treatment was continued for 4 weeks. In a parallel experiment, either TAT PTD or TAT-SMAR1 RS mutant peptide, SM (FIGS. 6A and B, respectively) was injected in tumor bearing mice to be used as control.
FIG. 6D-F corresponds to the magnified tumor images of FIG. 6A-C, respectively. […] Thus, P44 peptide mimics the function of full-length SMAR1 in drastically reducing the tumor growth.
FIG. 6. Tumor regression by TAT-SMAR1 WT peptide. A, Nude mice were allowed to develop tumors by subcutaneously injecting B 16F1 mouse melanoma cells. Mice with size-matched tumors were then randomized into three treatment groups (five animals per group); TAT PTD alone (panel A), TAT-SMART RS mutant (SM) (panel B) and TAT-SMAR1 WT (P44) (panel C). Panels D, E and F correspond to the magnified images of panels A, B and C, respectively. Mice were treated with either of the peptides at a dose of 200 μg/mice/thrice a week for consecutive 4 weeks. The tumors were then weighed and plotted for each mouse in all the treatment groups (panel G).
Animal model for tumorgenesis: B16F1 mouse melanoma cells in the exponential growth phase were trypsinized (Invitrogen) and washed twice with PBS. Cell number and viability was assessed and cell cultures with viability >90% were used. Tumors were then established in nude mice by subcutaneous injection of 2×10^6 B16F1 cells. Five mice were used in each set of experiments. The mice were maintained under pathogen-free conditions. When the subcutaneous tumor was clearly visible, the TAT-SMAR1 WT (P44) peptide treatment was started. The P44 peptide was subcutaneously injected proximal to the tumor sites at a dose of 200 μg/mouse thrice a week. The treatment was administered for 4 weeks. For control treatment, TAT PTD alone and TAT SMAR1 RS mutant peptide (SM) were injected in the same manner as the P44 peptide.

In assay [3] the test system is tumor vasculature of B16F1-induced tumors. Kind of assay: Hematoxylin and eosin histopathology of B16F1-induced tumors. The assay is classed as in vivo, mouse. Conditions: tumors excised from treated mice. An excerpt:
(§1) Histopathological changes in the subcutaneous tumors: To analyze the tumor vasculature of TAT PTD, SM treated and P44 treated mice, the tumor sections were stained with HE. […] In SM treated tumors, due to compressed vessels, the shape of RBCs were also distorted (FIG. 7A, lower right panel, arrow marked). […] The presence of hypoxic cells is a hallmark of cancer (Brown, J. M., and Wilson, W. R. (2004) Nat. Rev. Cancer 4, 437-447; Minchinton, A. I., and Tannock, I. F. (2006) Nat. Rev. Cancer 6, 583-592). Cellular responses to hypoxia are triggered by the hypoxia inducible factor-1 alpha (HIF-1α) that is known to restore tissue homeostasis in hypoxic conditions (Semenza, G. L. (2000) Genes Dev. 14, 1983-1991). To determine the status of HIF-1α expression, immunohistochemical analysis was performed on tumor sections obtained from SM and P44 treated mice by using antibody against HIF-1 α. […] All these observations implicate the significance of P44 peptide in restoring tissue architecture in tumor cells and thus potentiates its role as a tumor regressor.
(§2) FIG. 7. Histopathological changes in B16F1-induced tumors. A, Hematoxylin and eosin staining of tumor sections excised from mice treated with either P44 (upper panel) or SM (lower panel) peptide. […] The images have been recorded at 20× and 40×. B, Immunohistochemistry of paraffin embedded tumor sections from P44 treated as well as, SM treated mice. After antigen unmasking, sections were stained with HIF-1α antibody (middle panel) and detected using Cy-3 conjugated mouse immunoglobulin. Sections were counterstained with DAP1 for nuclear localization (left panel). Right panel corresponds to the merged image.

Another assay deals with HIF-1α. As to the kind of experiment: Immunohistochemical staining of tumor sections for HIF-1α. The assay is classed as in vivo, mouse. To be noted: tumors excised from treated mice.
Text: as §1, §2
Immunohistochemical staining of tumor sections: Tumor sections in paraffin-embedded blocks were transferred to poly-L-lysine coated glass slides and air-dried overnight at 37° C. They were dewaxed in xylene (three changes) and […] in graded series of decreasing ethanol concentrations. […] Thereafter, detected using cy-3 fluorescence labeled secondary antibody. […]

T1 sequence (P04637 whole entry): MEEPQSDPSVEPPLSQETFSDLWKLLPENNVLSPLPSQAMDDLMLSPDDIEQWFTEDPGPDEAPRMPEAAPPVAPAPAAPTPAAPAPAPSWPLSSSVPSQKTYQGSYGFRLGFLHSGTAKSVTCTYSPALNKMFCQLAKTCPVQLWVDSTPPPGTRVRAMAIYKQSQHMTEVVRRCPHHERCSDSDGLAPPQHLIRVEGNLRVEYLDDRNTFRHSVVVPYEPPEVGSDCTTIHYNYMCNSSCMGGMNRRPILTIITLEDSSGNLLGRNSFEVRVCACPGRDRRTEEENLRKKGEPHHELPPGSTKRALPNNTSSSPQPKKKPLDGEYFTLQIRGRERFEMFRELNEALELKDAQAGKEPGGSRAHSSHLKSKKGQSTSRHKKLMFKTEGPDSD

As to “YGRKKRRQRRR [TAT PTD, reference compound]”, the “phosphorylation of serine-15 residue of p53” value in assay [1] is recorded as “no phosphorylation”. Moreover, the “tumor weight after excision” value in assay [2] fell in the range of 1.5 to 3 g. For the same sequence, the “tumor vascular architecture (HE staining)” value in assay [3] was “poorly organized vascular architecture and compressed blood vessels”. Besides, the “HIF-1α expression in tumor sections” value with HIF-1α is listed as “increased expression of HIF-1α”.
